For experiment [1], the target named is T1, T164-165 β-lactamase: maltose binding protein (MBP) fusion (Escherichia coli, UniProt P0AEX9, INS191[…]).
T1 construct: made in house; host or cells: E. coli (library selected in malE auxotroph PM9F'; derivative of plasmid pDIMC8-Mal, IPTG-inducible lac promoter)
Description: Effect of sugars on the T164-165 fusion's hydrolysis of nitrocefin (FIG. 8). Type of experiment: biochemical, E. coli. The settings on record: 150 μM nitrocefin, 5 mM of the indicated sugar. Here is the method: The fusion comprises an insertion of β-lactamase amino acid sequences into an MBP acceptor polypeptide with a tandem duplication of amino acids 164-165 of MBP at the insertion site. The velocity of nitrocefin hydrolysis with 150 μM nitrocefin and 5 mM of the indicated sugars was compared to the velocity without any sugar. […] All sugars known to bind to wildtype MBP and induce a conformational change (maltose, maltotriose and maltohexose) increase the rate of hydrolysis by approximately 40%.
Although MBP can bind many other linear maltodextrins, cyclodextrins and reduced or oxidized variants thereof, only those ligands which, induce a conformational change in MBP (Hall, et al. (1997) J. Biol. Chem. 272(28): 17605-17609; Ball, et al. (1997) J. Biol. Chem. 272(28): 17610-17614) behaved as a switch (see, FIG. 8).

Experiment [2] has as its system DH5α/pDIMC8-Mal. Description: MIC for ampicillin on LB plates. Type of experiment: cell-based, E. coli. The settings on record: Escherichia coli. The source says:
The E. coli […] was cloned into plasmid pDIMC8 (Ostermeier and Benkovic, 1999, Nat Biotechnol. 17:1205-1209) under control of the IPTG inducible lac promoter to create plasmid […].

In brackets after ≈: the same amount, converted by molar mass.

In general, MIC refers to the lowest concentration found to suppress growth. A higher MIC goes with a need for much substance.

Regarding `OC[C@H]1O[C@H](O[C@H]2[C@H](O)[C@@H](O)C(O)O[C@@H]2CO)[C@H](O)[C@@H](O)[C@@H]1O` (mixture of isomers) [maltose], the “increase of rate of nitrocefin hydrolysis compared to velocity without any sugar” value (“increase of rate … to velocity without any sugar” for short) in experiment [1] is reported as “approximately 40%”.

On to `CC1(C)S[C@@H]2[C@H](NC(=O)[C@H](N)c3ccccc3)C(=O)N2[C@H]1C(=O)O` [ampicillin], for which, in experiment [2], the MIC lay in the range of 30 to 35 µg/mL (≈ 85.9 to 100 µM).

Take `OC[C@@H](O)[C@@H](O[C@H]1O[C@H](CO)[C@@H](O)[C@H](O)[C@H]1O)[C@H](O)[C@@H](O)CO` [maltitol]: the “increase of rate … to velocity without any sugar” value in experiment [1] is on record as “did not have a significant effect”.

Consider `OC[C@H]1O[C@H](O[C@H]2[C@H](O)[C@@H](O)[C@@H](O[C@H]3[C@H](O)[C@@H](O)[C@@H](O[C@H]4[C@H](O)[C@@H](O)[C@@H](O[C@H]5[C@H](O)[C@@H](O)[C@@H](O[C@H]6[C@H](O)[C@@H](O)C(O)O[C@@H]6CO)O[C@@H]5CO)O[C@@H]4CO)O[C@@H]3CO)O[C@@H]2CO)[C@H](O)[C@@H](O)[C@@H]1O` (stereo partly shown) [maltohexose], for which, in experiment [1], the “increase of rate … to velocity without any sugar” value was “approximately 40%”.

On to `OC[C@H]1O[C@@](CO)(O[C@H]2O[C@H](CO)[C@@H](O)[C@H](O)[C@H]2O)[C@@H](O)[C@@H]1O` [sucrose], for which the “increase of rate … to velocity without any sugar” value in experiment [1] was “did not have a significant effect”.

For the compound `OC[C@H]1O[C@@H]2O[C@H]3[C@H](O)[C@@H](O)[C@@H](O[C@H]4[C@H](O)[C@@H](O)[C@@H](O[C@H]5[C@H](O)[C@@H](O)[C@@H](O[C@H]6[C@H](O)[C@@H](O)[C@@H](O[C@H]7[C@H](O)[C@@H](O)[C@@H](O[C@H]8[C@H](O)[C@@H](O)[C@@H](O[C@H]1[C@H](O)[C@H]2O)O[C@@H]8CO)O[C@@H]7CO)O[C@@H]6CO)O[C@@H]5CO)O[C@@H]4CO)O[C@@H]3CO` [β-cyclodextrin], in experiment [1], the “increase of rate … to velocity without any sugar” value is “did not have a significant effect”.

Turning to maltotriose, the “increase of rate … to velocity without any sugar” value in experiment [1] is on record as “approximately 40%”.

For the origin of these results see US9273319B2, “Molecular switches and methods for making and using the same” (The Johns Hopkins University, priority 2002, dated 2016).
